Assay results: the NIST ThermoML archive (doi:10.1021/je400968v)

Experiments:
[1] = mn = molality of the nth substance listed, in mol/kg; conditions: 101 kPa, Liquid; for viscosity: Capillary tube (Ostwald / Ubbelohde) method; for mass density: Vibrating tube method
[2] = 101 kPa, Liquid; for viscosity: Capillary tube (Ostwald / Ubbelohde) method; for mass density: Vibrating tube method

Cc1c(N)cccc1N [2,6-diaminotoluene] + O
[1]
Conditions | mass density, 293.15 K [kg/m3] | mass density, 303.15 K [kg/m3] | mass density, 313.15 K [kg/m3] | mass density, 323.15 K [kg/m3] | mass density, 333.15 K [kg/m3] | viscosity, 293.15 K [mPa·s] | viscosity, 303.15 K [mPa·s] | viscosity, 313.15 K [mPa·s] | viscosity, 323.15 K [mPa·s] | viscosity, 333.15 K [mPa·s]
m1 = 0.0501 | 998.9 | 996.32 | 992.86 | 988.65 | 983.81 | 1.032 | 0.813 | 0.665 | 0.557 | 0.4741
m1 = 0.1002 | 999.59 | 996.97 | 993.49 | 989.24 | 984.38 | 1.053 | 0.832 | 0.677 | 0.563 | 0.479
m1 = 0.1502 | 1000.27 | 997.61 | 994.1 | 989.82 | 984.89 | 1.066 | 0.838 | 0.681 | 0.568 | 0.483
m1 = 0.2 | 1000.92 | 998.24 | 994.69 | 990.38 | 985.37 | 1.081 | 0.85 | 0.69 | 0.573 | 0.487
m1 = 0.2497 | 1001.57 | 998.86 | 995.27 | 990.93 | 985.79 | 1.09 | 0.854 | 0.694 | 0.575 | 0.488
m1 = 0.2993 | 1002.21 | 999.47 | 995.84 | 991.46 | 986.15 | 1.112 | 0.87 | 0.702 | 0.585 | 0.495

CCCO [propan-1-ol]
[2]
Conditions | mass density [kg/m3] | viscosity [mPa·s]
293.15 K | 803.86 | 2.171
303.15 K | 795.54 | 1.696
313.15 K | 787.37 | 1.338
323.15 K | 779.01 | 1.067
333.15 K | 770.42 | 0.859

Cc1c(N)cccc1N [2,6-diaminotoluene] + CCCCO
[1]
Conditions | mass density, 293.15 K [kg/m3] | mass density, 303.15 K [kg/m3] | mass density, 313.15 K [kg/m3] | mass density, 323.15 K [kg/m3] | mass density, 333.15 K [kg/m3] | viscosity, 293.15 K [mPa·s] | viscosity, 303.15 K [mPa·s] | viscosity, 313.15 K [mPa·s] | viscosity, 323.15 K [mPa·s] | viscosity, 333.15 K [mPa·s]
m1 = 0.05 | 811.28 | 803.61 | 795.81 | 787.85 | 779.68 | 2.922 | 2.233 | 1.728 | 1.356 | 1.075
m1 = 0.0995 | 812.81 | 805.13 | 797.31 | 789.34 | 781.16 | 2.941 | 2.246 | 1.735 | 1.361 | 1.078
m1 = 0.1499 | 814.34 | 806.66 | 798.81 | 790.84 | 782.65 | 2.96 | 2.259 | 1.746 | 1.368 | 1.085
m1 = 0.1994 | 815.82 | 808.13 | 800.27 | 792.28 | 784.08 | 2.978 | 2.268 | 1.755 | 1.374 | 1.087
m1 = 0.2495 | 817.27 | 809.58 | 801.7 | 793.7 | 785.5 | 3.001 | 2.291 | 1.764 | 1.379 | 1.093

O [water]
[2]
Conditions | mass density [kg/m3] | viscosity [mPa·s]
293.15 K | – | 1.002
303.15 K | – | 0.798
313.15 K | – | 0.653
323.15 K | 988.04 | 0.547
333.15 K | 983.2 | 0.467

O [water] + Cc1ccc(N)cc1N
[1], m2 = 0
Conditions | mass density [kg/m3]
323.15 K | 988.04
333.15 K | 983.2

CCCCO [butan-1-ol] + Cc1ccc(N)cc1N
[1], m2 = 0
Conditions | mass density [kg/m3] | viscosity [mPa·s]
293.15 K | 809.69 | 2.908
303.15 K | 802.04 | 2.225
313.15 K | 794.27 | 1.723
323.15 K | 786.32 | 1.351
333.15 K | 778.16 | 1.071

CCO [ethanol] + Cc1c(N)cccc1N
[1], m2 = 0
Conditions | mass density [kg/m3] | viscosity [mPa·s]
293.15 K | 789.56 | 1.179
303.15 K | 780.98 | 0.972
313.15 K | 772.22 | 0.806
323.15 K | 763.29 | 0.672
333.15 K | 754.18 | 0.564
